# Key:
# Leishmania promastigotes = experiment: In vitro leishmanicidal assay; type: cell-based; details: 72 hrs, 22-25° C.
# Method: Leishmania promastigotes were grown in bulk early in modified NNN biphasic medium using normal physiological saline. Leishmania parasite promastigotes were cultured with RPMI 1640 medium (Sigma, St. Louis, USA) supplemented with 10% heat inactivated foetal Calf serum (FCS) (PAA Laboratories GmbH, Austria) Parasites at log phase were centrifuged at 2000 rpm for 10 minutes, and washed three times with saline at same speed and time. Parasites were diluted with fresh culture medium to a final density of 1×10^6 cells/ml.
# In a 96-well micro titer plate, medium was added in different wells, 20 μl of the experimental compound was added in medium and serially diluted. 100 μl of parasite culture was added in all wells. Two rows were left for negative and positive control. Negative controls receives medium while the positive control contains varying concentrations of standard antileishmanial compound e.g., Amphotericin B (MP Biomedical Inc.), Pantamidine (ICN Biomedical Inc.). The plate was incubated between 22-25° C. for 72 hrs. […] All assays were run in duplicate (5).
# [1] = system: 3T3 cell lines (Normal Fibroblast cell); experiment: Cytotoxic activity against 3T3 cell lines (MTT assay); type: cell-based, Mouse; details: 72 h, 1-100 μg/mL
# Method: Cytotoxic activity of compounds was evaluated in 96-well flat-bottomed micro plates by using the standard MTT (3-[4,5-dimethylthiazole-2-yl]-2,5-diphenyl-tetrazolium bromide) colorimetric assay1. For this purpose, 3T3 (Mouse fibroblast) were cultured in Dulbecco's Modified Eagle's Medium, supplemented with 5% of foetal bovine serum (FBS), 100 IU/mL of penicillin and 100 μg/mL of streptomycin in 25 cm^3 flask, and kept in 5% CO2 incubator at 37° C. Exponentially growing cells were harvested, counted with haemocytometer and diluted with a particular medium. Cell culture with the concentration of 1×10^5 cells/mL was prepared and introduced (100 μL/well) into 96-well plates. After overnight incubation, medium was removed and 200 μL of fresh medium was added with different concentrations of compounds (1-100 μg/mL). After 72 h, 50 μL MTT (2 mg/mL) was added to each well and incubated further for 4 hrs. Subsequently, 100 μL of DMSO was added to each well. The extent of MTT reduction to formazan within cells was calculated by measuring the absorbance at 570 nm, using a microplate ELISA reader (Spectra Max plus, Molecular Devices, CA, USA). The cytotoxicity was recorded as concentration causing 50% growth inhibition for 3T3 cells.
smiles,measurement,setting,value
C[C@@H]1[C@H](O)[C@@H](C)/C=C/C=C/C=C/C=C/C=C/C=C/C=C/[C@H](O[C@@H]2O[C@H](C)[C@@H](O)[C@H](N)[C@@H]2O)C[C@@H]2O[C@](O)(C[C@@H](O)C[C@@H](O)[C@H](O)CC[C@@H](O)C[C@@H](O)CC(=O)O[C@H]1C)C[C@H](O)[C@H]2C(=O)O [Amphotericin B],In vitro Leishmanicidal activity IC50 ± S.D,Leishmania promastigotes,0.12 ± 0.10 µg/mL
C[C@@H]1C[C@@H]([C@H](O)CC2CC(=O)NC(=O)C2)C(=O)[C@@H](C)C1 [Cyclohexamide],IC50 ± S.D. 3T3 cell lines,[1],0.26 ± 0.04 µg/mL
N=C(N)c1ccc(OCCCCCOc2ccc(C(=N)N)cc2)cc1 [Pentamidine],IC50,"Leishmania promastigotes; Leishmania, read-out: In vitro Leishmanicidal activity IC50 ± S.D",5.13 ± 0.02 µg/mL

# Reference: patent US8287921B1, “Formulations against cutaneous leishmaniasis” (priority 2011, dated 2012)
